From patent publication US10414811B2, “Protease-resistant lipidated GLP-1 analogs” (MEDIMMUNE LIMITED, priority 2015, dated 2019) come the findings set out here.

Where two headings read alike, the source gives them in different places. Numbered stars: 1 amine (or outer) side, 2 acyl side, 3 side chain; on linkers, the order of the positions; unused ones are H or OH. Square brackets hold non-standard residues; d marks the D form. Side chains are listed from the residue outwards. Peptide text beside a SMILES is read from it. * marks the point of attachment. γGlu = O=C(O)[C@H](CCC(=O)[*:2])N[*:1]; αMeF = C[C@](N)(Cc1ccccc1)C(=O)O; αMeK = C[C@](N)(CCCCN)C(=O)O; Lauroyl = CCCCCCCCCCCC(=O)*; AEEA = NCCOCCOCC(=O)O; Aib = CC(C)(N)C(=O)O

Format in all cases: cell-based
Test [1] concerns the target T1, human GLP-1 receptor (GLP-1R) (Homo sapiens, UniProt P43220).
T1 construct: expressed in transfected cells
In words: cAMP assay, human GLP-1R cells. A digest of the protocol:
(§1)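 Peptide-stimulated cAMP measured by two-step HTRF after a 30 min room-temperature incubation with receptor-expressing cells (hGLP-1R, hGIPR at 1×10^5 cells/ml; hGCGR at 2×10^5 cells/ml). Duplicate dilutions; EC50 from 4-parameter logistic fit of % Delta F.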

The target of test [2] is T2, human glucose-dependent insulinotropic peptide receptor (GIPR) (Homo sapiens, UniProt P48546).
T2 construct: expressed in transfected cells
T2 sequence (P48546 22-466): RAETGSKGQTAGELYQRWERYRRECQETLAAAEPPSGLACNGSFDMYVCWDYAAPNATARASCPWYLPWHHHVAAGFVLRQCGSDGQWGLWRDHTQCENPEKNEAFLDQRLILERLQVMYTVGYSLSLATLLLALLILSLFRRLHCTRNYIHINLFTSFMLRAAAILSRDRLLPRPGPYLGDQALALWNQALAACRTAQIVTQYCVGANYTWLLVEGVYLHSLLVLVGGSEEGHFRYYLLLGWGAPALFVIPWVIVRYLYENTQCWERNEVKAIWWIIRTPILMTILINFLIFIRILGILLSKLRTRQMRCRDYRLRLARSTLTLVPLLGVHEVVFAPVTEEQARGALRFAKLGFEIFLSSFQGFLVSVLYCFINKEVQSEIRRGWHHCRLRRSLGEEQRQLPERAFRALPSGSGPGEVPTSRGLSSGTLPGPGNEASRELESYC
In words: cAMP assay, human GIPR cells. A digest of the protocol: as §1
For orientation: cAMP levels reflect the balance of adenylyl cyclase and phosphodiesterase activity.

Test [3] addresses T3, human glucagon receptor (GCGR) (Homo sapiens, UniProt P47871).
T3 construct: expressed in transfected cells
In words: cAMP assay, human GCGR cells. A digest of the protocol: as §1

T1 sequence (P43220 24-463): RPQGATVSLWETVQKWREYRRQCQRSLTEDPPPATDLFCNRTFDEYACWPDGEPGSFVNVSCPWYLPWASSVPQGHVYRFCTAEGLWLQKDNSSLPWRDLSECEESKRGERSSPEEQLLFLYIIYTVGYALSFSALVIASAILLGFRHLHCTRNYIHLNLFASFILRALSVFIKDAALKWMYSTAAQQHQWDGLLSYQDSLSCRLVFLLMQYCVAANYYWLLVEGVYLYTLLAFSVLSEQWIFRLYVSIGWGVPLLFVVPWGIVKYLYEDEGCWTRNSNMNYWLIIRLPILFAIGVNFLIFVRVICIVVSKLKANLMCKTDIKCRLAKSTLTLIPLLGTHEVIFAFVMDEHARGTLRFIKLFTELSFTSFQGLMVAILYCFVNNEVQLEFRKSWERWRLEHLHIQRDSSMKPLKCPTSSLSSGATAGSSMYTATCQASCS
T3 sequence (P47871 26-477): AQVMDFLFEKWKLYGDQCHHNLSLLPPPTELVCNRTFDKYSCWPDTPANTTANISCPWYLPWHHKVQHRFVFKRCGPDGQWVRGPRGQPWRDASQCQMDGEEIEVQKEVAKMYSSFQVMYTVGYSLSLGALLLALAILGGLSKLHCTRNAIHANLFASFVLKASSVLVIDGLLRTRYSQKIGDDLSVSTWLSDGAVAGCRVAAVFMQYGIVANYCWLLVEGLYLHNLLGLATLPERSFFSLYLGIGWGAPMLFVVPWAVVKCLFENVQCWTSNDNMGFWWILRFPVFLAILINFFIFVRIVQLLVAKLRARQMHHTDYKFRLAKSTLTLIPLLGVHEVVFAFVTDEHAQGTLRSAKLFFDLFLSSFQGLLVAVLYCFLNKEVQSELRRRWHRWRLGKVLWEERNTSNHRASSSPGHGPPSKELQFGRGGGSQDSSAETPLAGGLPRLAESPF

As to `CCCCCCCCCCCC(=O)N[C@@H](CCC(=O)NCCOCCOCC(=O)NCCOCCOCC(=O)NCCCC[C@H](NC(=O)[C@H](CCC(=O)O)NC(=O)CNC(=O)[C@H](CCC(=O)O)NC(=O)[C@H](CC(C)C)NC(=O)[C@H](Cc1ccc(O)cc1)NC(=O)[C@H](CO)NC(=O)[C@H](CO)NC(=O)[C@H](CCCCNC(=O)COCCOCCNC(=O)COCCOCCNC(=O)CC[C@H](NC(=O)CCCCCCCCCCC)C(=O)O)NC(=O)[C@H](CC(=O)O)NC(=O)[C@H](CO)NC(=O)[C@@H](NC(=O)[C@](C)(Cc1ccccc1)NC(=O)[C@H](CO)NC(=O)CNC(=O)[C@H](CCC(=O)O)NC(=O)C(C)(C)NC(=O)[C@@H](N)Cc1c[nH]cn1)[C@@H](C)O)C(=O)N[C@@H](C)C(=O)N[C@@](C)(CCCCN)C(=O)N[C@@H](CCC(=O)O)C(=O)N[C@@H](Cc1ccccc1)C(=O)N[C@H](C(=O)N[C@@H](C)C(=O)N[C@@H](Cc1ccccc1)C(=O)N[C@@H](CCCCNC(=O)COCCOCCNC(=O)COCCOCCNC(=O)CC[C@H](NC(=O)CCCCCCCCCCC)C(=O)O)C(=O)N[C@H](C(=O)N[C@@H](CCC(=O)O)C(=O)NCC(=O)NCC(N)=O)C(C)C)[C@@H](C)CC)C(=O)O` [compound 473] (H-H[Aib]EGS[αMeF]TSDK([AEEA-AEEA-γGlu-Lauroyl])SSYLEGEK([AEEA-AEEA-γGlu-Lauroyl])A[αMeK]EFIAFK([AEEA-AEEA-γGlu-Lauroyl])VEGG-NH2; N-terminus assumed), the EC50 in test [1] (tris-lipidated peptides, mean of n1 and n2, read-out: Primary assay EC50 Mean pM GLP-1R) is 434 pM; in test [1] (tris-lipidated peptides, replicate n1, read-out: Primary assay EC50 GLP-1R n1), 399 pM; in test [1] (tris-lipidated peptides, replicate n2, read-out: Primary assay EC50 GLP-1R n2), 470 pM; in test [2] (tris-lipidated peptides, second replicate, read-out: Primary assay EC50 GIP-R (n2)), 0.0196 µM; in test [3] (tris-lipidated peptides, second replicate, read-out: Primary assay EC50 Gluc-R (n2)), 0.0196 µM.
`CC[C@H](C)[C@H](NC(=O)[C@](C)(Cc1ccccc1)NC(=O)[C@H](CCC(=O)O)NC(=O)[C@](C)(CCCCN)NC(=O)[C@H](C)NC(=O)[C@H](C)NC(=O)[C@H](CCC(=O)O)NC(=O)CNC(=O)[C@H](CCC(=O)O)NC(=O)[C@H](CC(C)C)NC(=O)[C@](C)(Cc1ccccc1)NC(=O)[C@H](CO)NC(=O)[C@](C)(CO)NC(=O)[C@@H](NC(=O)[C@H](CC(=O)O)NC(=O)[C@H](CO)NC(=O)[C@@H](NC(=O)[C@](C)(Cc1ccccc1)NC(=O)[C@H](CO)NC(=O)CNC(=O)[C@H](CCC(=O)O)NC(=O)[C@H](CCCCNC(=O)COCCOCCNC(=O)COCCOCCNC(=O)CC[C@H](NC(=O)CCCCCCCCCCCCCCCCC(=O)O)C(=O)O)NC(=O)[C@@H](N)Cc1c[nH]cn1)[C@@H](C)O)C(C)C)C(=O)N[C@@H](C)C(=O)N[C@@](C)(Cc1ccccc1)C(=O)N[C@H](C(=O)N[C@H](C(=O)N[C@@](C)(CCCCN)C(=O)NCC(=O)NCC(N)=O)C(C)C)C(C)C` [compound 127]: the EC50 in test [1] (cAMP assay, first determination (n1), read-out: Primary assay EC50 GLP-1R n1) is not below 25000 pM; in test [1] (cAMP assay, second determination (n2), read-out: Primary assay EC50 GLP-1R n2), not below 25100 pM; in test [1] (mean of n1 and n2, read-out: Mean pM GLP-1R), not below 25100 pM; in test [2] (cAMP assay, first determination (n1), read-out: Primary assay EC50 GIP-R (n1)) it was not below 0.025 µM; in test [2] (cAMP assay, second determination (n2), read-out: Primary assay EC50 GIP-R (n2)) it was not below 0.0251 µM; in test [3] (cAMP assay, first determination (n1), read-out: Primary assay EC50 Gluc-R (n1)), not below 0.025 µM. The EC50 in test [3] (cAMP assay, second determination (n2), read-out: Primary assay EC50 Gluc-R (n2)) is not below 0.0251 µM.
